Measured values: patent publication US20060269621A1, “Novel therapeutic extracts and molecules for degenerative conditions” (Avestha Gengraine Technologies Pvt.Ltd., priority 2003, published 2006)

Key:
3T3-L1 adipocytes [1] = experiment: Standardization / validation of [3H]-glucose uptake 3T3-L1 assay with insulin and glitazone; type: cell-based; settings: for [3H]-glucose uptake with insulin: in cpm (unit assumed); for Counts with insulin: insulin alone control
Experimental: In the first set of assays (insulin control and the first 9 samples) cells were grown in 96 well plates, and assayed for 3H-deoxyglucose uptake. Briefly cells were treated with plant extract overnight and immediately before the assay got washed with Krebs-Ringer-HEPES Buffer [20 mM HEPES, pH 7.4, 136 mM NaCl, 4.7 mM KCl, 1.5 mM MgSO4] at 37° C. for 30 minutes and then treated with insulin. Glucose uptake reaction was initiated by adding 0.1 mM deoxy-glucose containing deoxy-tritiated-glucose containing 12.2 kBq/mL. After 30 minutes of 37° C. incubation, the reaction was terminated by adding 40 uM cytochalasin-B. Cells were washed 3× with ice cold KRH buffer and solubilized with 100 μl of 10% Triton-X with Ca/Mg free PBS. Radioactivity incorporated into cells was measured on a top count microplate scintillation counter. Results are being interpreted as mean±SD of counts per minute.
As the basal counts were low, the assay design was changed to a 24-well format and the cell numbers increased from 100,000 cells per well to 2 million cells per well.
The two controls in this experiment were: (a) [^3H]-deoxyglucose uptake by cells in the absence of both insulin and plant extracts, and (b) [^3H]-deoxyglucose uptake by cells in the presence of insulin and absence of plant extracts.

3T3-L1 adipocytes [2] = experiment: as above; type: cell-based; settings: 48 hrs

`O=C1NC(=O)C(Cc2ccc(O)cc2)S1` (stereo not drawn) [Glitazone] showed a Counts per minute (3T3-L1 adipocytes [1]; Glitazone 150 μg, 48 hrs) of 15900.4 Counts per minute, a Counts per minute (3T3-L1 adipocytes [2]; Glitazone 60 μg) of 7886 Counts per minute and a Counts per minute (3T3-L1 adipocytes [2]; Glitazone 300 μg) of 47971.9 Counts per minute.

In the case of Insulin, the “[3H]-glucose uptake with insulin” value (3T3-L1 adipocytes [1]; 100,000 cells/well, Insulin 1 nM) was 60.5, the “[3H]-glucose uptake with insulin” value (3T3-L1 adipocytes [1]; 100,000 cells/well, Insulin 10 nM) was 502 and the “[3H]-glucose uptake with insulin” value (3T3-L1 adipocytes [1]; 100,000 cells/well, Insulin 100 nM) was 1850. The “[3H]-glucose uptake with insulin” value (3T3-L1 adipocytes [1]; 2,000,000 cells/well, Insulin 10 nM) was 36562, the “[3H]-glucose uptake with insulin” value (3T3-L1 adipocytes [1]; 2,000,000 cells/well, Insulin 25 nM) was 38538 and the “[3H]-glucose uptake with insulin” value (3T3-L1 adipocytes [1]; 2,000,000 cells/well, Insulin 100 nM) was 55258. The Counts per minute (3T3-L1 adipocytes [1]; Insulin 25 nM, 15 min) was 48026.7 Counts per minute, the Counts per minute (3T3-L1 adipocytes [1]; Insulin 25 nM, 30 min) was 24699.9 Counts per minute and the Counts per minute (3T3-L1 adipocytes [1]; Insulin 25 nM, 60 min) was 28103.3 Counts per minute. For the same molecule, the “[3H]-deoxyglucose uptake, Counts per minute” value (3T3-L1 adipocytes [1]; control: cells + insulin, no plant extract) was 36561 Counts per minute, the Counts with insulin (3T3-L1 adipocytes [1]; Table 15, first of two value columns) was 33065.1 Counts per minute and the Counts with insulin (3T3-L1 adipocytes [1]; Table 15, second of two value columns) was 32352.28 Counts per minute.
